Reference: patent publication US20080045451A1, “Novel thymidylate synthase mutants” (priority 2000, published 2008)

Key:
3T3 fibroblasts = assay: Cytotoxicity of 5-FU in 3T3 fibroblasts with or without PTD-4-TSD254E fusion protein (Hoechst 33342); type: cell-based; settings: 24 h
Description: 3T3 fibroblasts cells (available by the American Type […] Collection (ATCC, Rockville, Md., USA) were seeded with a cell density of 1×10^4 cells per well into 96-well-cell culture plates. DMEM medium with 10% fetal calve serum is used as cell culture medium, and cells are cultured in a CO2-incubator at 37° C. and 5% CO2. The cell culture medium is aspirated after 24 hours and substituted by 200 μL/well of the test assay and cells are incubated for another 24 hours. Subsequently the portion of viable cells was determined as described below. The test assays are composed as follows:
Controls without 5-FU and without PTD-4-TSD2S4E-fusion protein: 200 μL/well of DMEM with 10%.fetal calve serum […]
After completion of the 24-hour treatment of the cells in the control- or test assaysas described above, the medium is removed from the 96-well-plates and substituted by 200 μL/well DMEM medium with 10% fetal calve serum and 10 μg/mL of the DNA-binding fluorescent dye H33342 (Engelmann et al., 2001). […] Subsequently, 100 μL well PBS is added and the fluorescence is quantified at an […]. The intensity of the fluorescence signal is a measure for the number of viable cells. […] The fluorescence intensity of these samples is set as 100%. […] The ED50-values were calculated using the nonlinear regression. […]

[1] = tested on: primary human gingival fibroblasts; assay: Cytotoxicity of 5-FU in primary human gingival fibroblasts with or without PTD-4-TSD254E fusion protein (Hoechst 33342); type: cell-based; settings: 10 mM 5-FU, 24 h, without PTD-4-TSD254E, FIG. 7
Description: After completion of the 24-hour treatment of the cells in the control- or test assaysas described above, the medium is removed from the 96-well-plates and substituted by 200 μL/well DMEM medium with 10% fetal calve serum and 10 μg/mL of the DNA-binding fluorescent dye H33342 (Engelmann et al., 2001). The plates are kept at 37° C. for 30 minutes and are then washed twice with each 100 μL/well phosphaste-buffered sodium chloride solution (PBS, “phosphate buffered saline”). Subsequently, 100 μL well PBS is added and the fluorescence is quantified at an […]. The intensity of the fluorescence signal is a measure for the number of viable cells. The fluorescence background signal (dye incubation without cells) is subtracted from the raw data of the fluorescence readings and the calculation of the %-share of viable cells is made related to the fluorescence reading of cells, which were not treated with 5-FU. The fluorescence intensity of these samples is set as 100%. The dosage of 5-FU that kills 50% of the cells (ED50), is determined using the same method. […] The ED50-values were calculated using the nonlinear regression. This method to determine the ED50 has been already described (Engelmann et al., 2001). […]

[2] = Ho et al., 2001; cited from earlier work

Compound | survival of cells (3T3 fibroblasts; 2.5 μM 5-FU, absence of PTD-4-TSD254E, FIG. 6) [%] | EC50 (3T3 fibroblasts; 3T3-fibroblast cell line, read-out: ED50 (dosage of 5-FU that kills 50% of the cells)) [nM] | survival of cells [1] [%] | transduction activity in comparison to the original TAT sequence [2] [fold]
O=c1[nH]cc(F)c(=O)[nH]1 [Mutant 5-FU, 5-fluorouracil] | 50 | 2500 | 70 | 
PTD-4: optimized TAT sequence YARAAARQARA (SEQ ID NO: 6), protein transduction domain 4 (synthetic TAT sequence optimized by random mutagenisis) |  |  |  | 33
